Results as given in patent US20240285571A1, “METHODS OF TREATING BONE INFECTIONS” (MICROBION CORPORATION, priority 2020, published 2024).

Tests used:
Test in all cases: MIC of baseline clinical isolates (Example 8)
Assay type in all cases: cell-based
S. aureus (MRSA, MSSA) = details: Staphylococcus aureus, MRSA baseline isolates (N′ = 4), central laboratory, mITT
Procedure: (§1) Microbiology was assessed on Day 1 and at the time of any subsequent surgical procedure at the index site. Samples were collected from the infected bone site or involved tissue adjacent to any implant(s), swabs of the deep infection site, and the superficial tissue/wound closure/sinus tract site. […] Parallel sets of samples were analyzed by the local clinical site laboratory to guide patient antibiotic treatment.

S. epidermidis = details: Staphylococcus epidermidis baseline isolates (N′ = 5), central laboratory, mITT
Procedure: as §1

Staphylococcus arlettae = Staphylococcus arlettae baseline isolates (N′ = 1), central laboratory, mITT
Procedure: as §1

[1] = test system: Staphylococcus haemolyticus; details: Staphylococcus haemolyticus baseline isolates (N′ = 1), central laboratory, mITT
Procedure: as §1

Staphylococcus hominis = Staphylococcus hominis baseline isolates (N′ = 1), central laboratory, mITT
Procedure: as §1

[2] = test system: Staphylococcus lugdunensis; details: Staphylococcus lugdunensis baseline isolates (N′ = 3), central laboratory, mITT
Procedure: as §1

Staphylococcus pasteuri = Staphylococcus pasteuri baseline isolates (N′ = 1), central laboratory, mITT
Procedure: as §1

[3] = test system: Corynebacterium amycolatum; details: Corynebacterium amycolatum baseline isolates (N′ = 1), central laboratory, mITT
Procedure: (§2) Microbiology was assessed on Day 1 and at the time of any subsequent surgical procedure at the index site. Samples were collected from the infected bone site or involved tissue adjacent to any implant(s), swabs of the deep infection site, and the superficial tissue/wound closure/sinus tract site. Isolation and identification of aerobic and anerobic bacteria was conducted at a central microbiology laboratory (IHMA, Schaumburg, IL) and susceptibility of the isolates to MBN-101 (BisEDT) and comparator agents was performed per Clinical and Laboratory Standards Institute (CLSI). Parallel sets of samples were analyzed by the local clinical site laboratory to guide patient antibiotic treatment.

Corynebacterium jeikeium = Corynebacterium jeikeium baseline isolates (N′ = 2), central laboratory, mITT
Procedure: as §2

[4] = test system: Corynebacterium resistens; details: Corynebacterium resistens baseline isolates (N′ = 1), central laboratory, mITT
Procedure: as §2

Dermabacter hominis = Dermabacter hominis baseline isolates (N′ = 1), central laboratory, mITT
Procedure: as §2

Streptococcus oralis = Streptococcus oralis baseline isolates (N′ = 1), central laboratory, mITT
Procedure: as §2

[5] = test system: non-speciated Corynebacterium; details: Corynebacterium non-speciated baseline isolates (N′ = 2), central laboratory, mITT
Procedure: as §2

Mean MIC (S. epidermidis)	Mean MIC (Staphylococcus arlettae)	Mean MIC (Staphylococcus hominis)	Mean MIC [2]	Mean MIC (Staphylococcus pasteuri)	Compound	n (% resistant) (S. aureus (MRSA, MSSA))	n (% resistant) (S. epidermidis)	n (% resistant) (Staphylococcus arlettae)	Mean MIC [1]	n (% resistant) [1]	n (% resistant) [2]	Mean MIC [3]	n (% resistant) [3]	Mean MIC (Corynebacterium jeikeium)	n (% resistant) (Corynebacterium jeikeium)	Mean MIC [4]	n (% resistant) [4]	Mean MIC (Dermabacter hominis)	Mean MIC (Streptococcus oralis)	n (% resistant) (Streptococcus oralis)	also measured
2.60 µg/mL	0.50 µg/mL	4.00 µg/mL	7.33 µg/mL	0.25 µg/mL	CC1(C)S[C@@H]2[C@H](NC(=O)[C@H](N)c3ccccc3)C(=O)N2[C@H]1C(=O)O [AMP]	0 (0.0) n (%)	0 (0.0) n (%)	0 (0.0) n (%)	16.00 µg/mL	0 (0.0) n (%)	0 (0.0) n (%)										Mean MIC (S. aureus (MRSA, MSSA)): 28.00 µg/mL; n (% resistant) (Staphylococcus hominis): 0 (0.0) n (%); n (% resistant) (Staphylococcus pasteuri): 0 (0.0) n (%)
					CC[C@H]1OC(=O)[C@H](C)[C@@H](O[C@H]2C[C@@](C)(OC)[C@@H](O)[C@H](C)O2)[C@H](C)[C@@H](O[C@@H]2O[C@H](C)C[C@H](N(C)C)[C@H]2O)[C@](C)(O)C[C@@H](C)C(=O)[C@H](C)[C@@H](O)[C@]1(C)O [ERY]							4.00 µg/mL	1 (100.0) n (%)	2.25 µg/mL	1 (50.0) n (%)	0.02 µg/mL	0 (0.0) n (%)	2.00 µg/mL	1.00 µg/mL	1 (100.0) n (%)	n (% resistant) (Dermabacter hominis): 1 (100.0) n (%); Mean MIC [5]: 2.02 µg/mL; n (% resistant) [5]: 1 (50.0) n (%)
					CC1(C)S[C@@H]2[C@H](NC(=O)Cc3ccccc3)C(=O)N2[C@H]1C(=O)O [PEN]							1.00 µg/mL	0 (0.0) n (%)	4.00 µg/mL	2 (100.0) n (%)	4.00 µg/mL	1 (100.0) n (%)	0.50 µg/mL	0.06 µg/mL	0 (0.0) n (%)	n (% resistant) (Dermabacter hominis): 0 (0.0) n (%); Mean MIC [5]: 2.06 µg/mL
0.18 µg/mL	0.25 µg/mL	0.12 µg/mL	0.05 µg/mL	0.06 µg/mL	CN(C)c1ccc(O)c2c1C[C@H]1C[C@H]3[C@H](N(C)C)C(O)=C(C(N)=O)C(=O)[C@@]3(O)C(O)=C1C2=O [MIN]	0 (0.0) n (%)	0 (0.0) n (%)	0 (0.0) n (%)	0.12 µg/mL	0 (0.0) n (%)	0 (0 0) n (%)										Mean MIC (S. aureus (MRSA, MSSA)): 0.11 µg/mL; n (% resistant) (Staphylococcus hominis): 0 (0.0) n (%); n (% resistant) (Staphylococcus pasteuri): 0 (0.0) n (%)
					CO/N=C(\C(=O)N[C@@H]1C(=O)N2C(C(=O)O)=C(CSc3nc(=O)c(O)nn3C)CS[C@H]12)c1csc(N)n1 [CRO]							1.00 µg/mL	0 (0.0) n (%)	4.00 µg/mL	2 (100.0) n (%)	4.00 µg/mL	1 (100.0) n (%)	0.50 µg/mL	0.06 µg/mL	0 (0.0) n (%)	n (% resistant) (Dermabacter hominis): 0 (0.0) n (%); Mean MIC [5]: 0.75 µg/mL; n (% resistant) [5]: 0 (0.0) n (%)
125 µg/mL	2.00 µg/mL	4.00 µg/mL	2.83 µg/mL	0.25 µg/mL	Cc1onc(-c2ccccc2)c1C(=O)N[C@@H]1C(=O)N2[C@@H]1SC(C)(C)[C@@H]2C(=O)O [OXA]	4 (100.0) n (%)	2 (40.0) n (%)	1 (100.0) n (%)	4.00 µg/mL	1 (100.0) n (%)	2. (66.7) n (%)										n (% resistant) (Staphylococcus hominis): 1 (100.0) n (%); n (% resistant) (Staphylococcus pasteuri): 0 (0.0) n (%)

Compound	Mean MIC (S. epidermidis)	Mean MIC (Staphylococcus arlettae)	Mean MIC (Staphylococcus hominis)	Mean MIC [2]	Mean MIC (Staphylococcus pasteuri)	n (% resistant) (S. aureus (MRSA, MSSA))	n (% resistant) (S. epidermidis)	n (% resistant) (Staphylococcus arlettae)	Mean MIC [1]	n (% resistant) [1]	n (% resistant) [2]	Mean MIC [3]	n (% resistant) [3]	Mean MIC (Corynebacterium jeikeium)	n (% resistant) (Corynebacterium jeikeium)	Mean MIC [4]	n (% resistant) [4]	Mean MIC (Dermabacter hominis)	Mean MIC (Streptococcus oralis)	n (% resistant) (Streptococcus oralis)	also measured
CC1(C)S[C@@H]2[C@H](NC(=O)[C@H](N)c3ccc(O)cc3)C(=O)N2[C@H]1C(=O)O.O=C(O)[C@H]1/C(=C/CO)O[C@@H]2CC(=O)N21 [AMC]	1.05 µg/mL	0.25 µg/mL	2.00 µg/mL	3.67 µg/mL	0.12 µg/mL	0 (0.0) n (%)	0 (0.0) n (%)	0 (0.0) n (%)	2.00 µg/mL	0 (0.0) n (%)	0 (0.0) n (%)	1.00 µg/mL	0 (0.0) n (%)	3.00 µg/mL	0 (0.0) n (%)	8.00 µg/mL	0 (0.0) n (%)	0.50 µg/mL	0.06 µg/mL	0 (0.0) n (%)	Mean MIC (S. aureus (MRSA, MSSA)): 8.00 µg/mL; n (% resistant) (Staphylococcus hominis): 0 (0.0) n (%); n (% resistant) (Staphylococcus pasteuri): 0 (0.0) n (%); n (% resistant) (Dermabacter hominis): 0 (0.0) n (%); Mean MIC [5]: 4.03 µg/mL; n (% resistant) [5]: 0 (0.0) n (%)
COc1cc(Cc2cnc(N)nc2N)cc(OC)c1OC.Cc1cc(NS(=O)(=O)c2ccc(N)cc2)no1 [SXT]	4.42 µg/mL	8.00 µg/mL	8.00 µg/mL	0.16 µg/mL	0.12 µg/mL	1 (25.0) n (%)	3 (60.0) n (%)	1 (100.0) n (%)	0.25 µg/mL	10.0 n (%)	0 (0.0) n (%)	0.25 µg/mL	0 (0.0) n (%)	2.00 µg/mL	0 (0.0) n (%)	2.00 µg/mL	0 (0.0) n (%)	4.00 µg/mL	0.12 µg/mL	0 (0.0) n (%)	Mean MIC (S. aureus (MRSA, MSSA)): 2.09 µg/mL; Mean MIC [5]: 2.25 µg/mL
